Assay results published in US7094794B2, “Substituted thiazole-benzoisothiazole dioxide derivatives, process for their preparation and their use” (Sanofi-Aventis Deutschland GmbH, priority 2003, dated 2006).

The compounds below were run against T1, recombinant hPTP1B (human PTP1B, 1-299 aa) (Homo sapiens, UniProt P18031) (assay: Enzymatic test systems for detecting inhibition of a phosphatase (in vitro assay)). Details: Table 2 does not say which substrate (phosphopeptide or p-nitrophenyl phosphate).
T1 construct: without the carboxy-terminal hydrophobic region (corresponding to 1-299 aa); made in house; host or cells: Sf9 insect cells (baculovirus, Bac-to-Bac, pFASTBAC)
T1 sequence (P18031 1-299): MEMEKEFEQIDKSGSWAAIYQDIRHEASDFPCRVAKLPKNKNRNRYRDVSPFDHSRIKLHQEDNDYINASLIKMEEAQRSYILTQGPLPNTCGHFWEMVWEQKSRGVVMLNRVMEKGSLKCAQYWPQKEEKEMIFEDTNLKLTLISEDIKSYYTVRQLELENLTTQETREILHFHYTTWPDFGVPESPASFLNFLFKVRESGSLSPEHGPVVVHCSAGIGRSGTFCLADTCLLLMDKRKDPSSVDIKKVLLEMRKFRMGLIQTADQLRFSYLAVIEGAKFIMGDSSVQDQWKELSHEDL
Format: biochemical
Protocol: Enzymatic Test Systems for Detecting Inhibition of a Phosphatase
The compounds of the formula I were tested for their phosphatase-inhibiting effect in an in vitro assay. The enzyme preparation and the performance of the assay was carried out as follows.
• Sf9 cells (=Spodoptera frugiperda cell type; obtainable from invitrogen) are cultured in Grace's supplemented medium (Gibco-BRL) with 10% heat-inactivated fetal calf serum (Gibco-BRL) in spinner flasks at 28° C. in accordance with the protocol of Summers and Smith (A Manual for Methods for Baculoviruns Vectors and Insect Culture Procedures [Bulletin No. 15555]. Texas A & M University, Texas Agricultural Experiment Station, College Station, Tex., 1987). • Construction of recombinant Baculovirus transfer vectors: cDNA coding for the regulatory and catalytic domains of human PTP1B, but without the carboxy-terminal hydrophobic region (corresponding to 1-299 aa) was obtained by polymerase chain reaction via primers with attached cloning sites and suitable cDNA templates (obtainable for example from invitrogen) and then cloned into baculovirus expression vectors (Amersham Pharmacia Biotech.). The recombinant baculoviruses were prepared with the aid of the Bac-to-Bac baculovirus expression system (obtainable from Gibco-BRL). The gene was cloned into the pFASTBAC donor plasmid (obtainable from Life Technologies). The resulting plasmid was transformed into competent DH10BAC Escherichia coli cells (obtainable from Life Technologies). After transposition and antibiotic selection, the recombinant plasmid DNA was isolated from selected E. coli colonies and then used for the transfection of Sf9 insect cells. The virus particle in the supernatant medium was amplified three times up to a viral stock volume of 500 ml. B) Production of Recombinant Protein: • Baculovirus infection of a 500 ml spinner culture of Sf9 cells was essentially carried out as described by Summers and Smith (see above). Sf9 cells at a density of 1–3×10^6 cells/ml were pelleted by centrifugation at 300 g for 5 min, the supernatant was removed, and the cells were resuspended in a density of 1×10^7 cells/ml in a suitable recombinant viral stock (MOI 10). After careful shaking at room temperature for 1.5 h, fresh medium was added in order to achieve a cell density of 1×10^6 cells/ml. The cells were then cultured in the suspension at 28° C. for suitable periods after postinfection. C) Cellular Fractionation and Complete Cell Extracts of Infected Sf9 Cells: • After the postinfection, aliquots were subjected to an analysis of protein expression by SDS-PAGE and Western blot analysis. The cellular fractionation was carried out as described (Cromlish, W. and Kennedy, B. Biochem. Pharmacol. 52: 1777–1785, 1996). Complete cell extracts were obtained from 1 ml aliquots of the infected Sf9 cells after certain times postinfection. The pelleted cells (300×g, 5 min) were washed once in phosphate-buffered saline (4° C.), resuspended in 50 μl of water and disrupted by repeated freezing/thawing. Protein concentrations were determined with the aid of the Bradford method and bovine serum albumin as standard. Assay Procedure: A) Dephosphorylation of a Phosphopeptide: • This assay is based on the release of phosphate from a consensus substrate peptide which is detected in the nanomolar concentration range by the malachite green/ammonium molybdate method (Lanzetta, P. A., Alvarez, L. J., Reinach, P. S., Candia, O. A. Anal Biochem. 100: 95–97, 1979) adapted for the microtiter plate format. The dodecatrisphosphopeptide TRDIYETDYYRK (Biotrend, Cologne) corresponds to amino acids 1142–1153 of the catalytic domain of the insulin receptor and is (auto)phosphorylated on tyrosine residues 1146, 1150 and 1151. […]

SMILES	IC50
O=S1(=O)Cc2cc(Nc3nc(-c4ccc(Cl)c(Cl)c4)cs3)ccc2N1 [Example 2]	27.8 µM
O=S1(=O)Cc2cc(Nc3nc(-c4ccc5ccccc5c4)cs3)ccc2N1 [Example 3]	8.8 µM
O=S1(=O)Cc2cc(Nc3nc(-c4ccc(Br)cc4)cs3)ccc2N1 [Example 4]	6.2 µM
Cc1sc(Nc2ccc3c(c2)CS(=O)(=O)N3)nc1-c1ccccc1 [Example 5]	15.9 µM
COc1ccc(-c2csc(Nc3ccc4c(c3)CS(=O)(=O)N4)n2)c(OC)c1 [Example 6]	48 µM
O=S1(=O)Cc2cc(Nc3nc(-c4cccc(Br)c4)cs3)ccc2N1 [Example 7]	7.9 µM
O=S1(=O)Cc2cc(Nc3nc(-c4ccc(N5CCCC5)cc4)cs3)ccc2N1 [Example 8]	5.9 µM
COc1cccc(-c2csc(Nc3ccc4c(c3)CS(=O)(=O)N4)n2)c1 [Example 9]	6.3 µM
Cc1c(-c2csc(Nc3ccc4c(c3)CS(=O)(=O)N4)n2)sc2ccc(Cl)cc12 [Example 10]	5.3 µM
Cc1c(-c2csc(Nc3ccc4c(c3)CS(=O)(=O)N4)n2)sc2ccccc12 [Example 11]	6.2 µM
O=S1(=O)Cc2cc(Nc3nc(-c4ccncc4)cs3)ccc2N1 [Example 13]	> 80 µM
CC(C)(C)c1cc(-c2csc(Nc3ccc4c(c3)CS(=O)(=O)N4)n2)cc(C(C)(C)C)c1O [Example 14]	2.77 µM
